Experimental findings from ChEMBL document CHEMBL1201862, “PubChem BioAssay data set” (2004) are described below.

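1) Cells in 96-well plates. 2) Compound, 48 h, 5 concentrations. 3) Linear interpolation between surrounding doses. 4) Unreached endpoint = highest concentration. At the GI50, growth is halved.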 Active and inactive are the calls of the source. No stated cut-off is given here; in the data, active = GI50 up to about 1.1 µM and inactive = higher.

Test systems include RXF 393; SK-MEL-28; MDA-MB-435; KM12; UACC-257; OVCAR-8; SNB-75; SNB-19; HOP-92; A549; OVCAR-5; SF-539; 786-0; BT-549; ACHN; HCC 2998; HL-60; CCRF-CEM; SR; T47D.
Holding throughout (assay): growth of human tumour cells (NCI), 48 h

As for `CC1=CC(C)(C)Nc2ccc(CSc3ccccc3)cc21`, the GI50 with RXF 393 is 16.3 µM (inactive); in the assay on SK-MEL-28, 37.8 µM (inactive); in the assay with MDA-MB-435 it was 25.3 µM (inactive); in the assay with KM12 it was 26.2 µM (inactive); with UACC-257, 26.7 µM (inactive); in the assay with OVCAR-8, 46.2 µM (inactive). The GI50 with SNB-75 is 24.7 µM (inactive); in the assay with SNB-19, 37.7 µM (inactive); in the assay with HOP-92 it was 34.8 µM (inactive); in the assay on A549 it was 21.1 µM (inactive); in the assay with OVCAR-5, 14.9 µM (inactive); in the assay on SF-539 it was 44.8 µM (inactive). Further, the GI50 with 786-0 was 23.2 µM (inactive); in the assay with BT-549 it was 59.2 µM (inactive); in the assay with ACHN, 46.6 µM (inactive); in the assay on HCC 2998, 17.2 µM (inactive).
With `COc1cc2c3c(c4ccc(OC)c(OC)c4c2cc1OC)CN1CCC[C@@H]1C3` [TYLOCREBRINE], the GI50 was 0.0343 µM (active) in the assay on HL-60; < 0.0155 µM (active) in the assay on RXF 393; 0.0307 µM (active) with SK-MEL-28; 0.0365 µM (active) with MDA-MB-435; 0.0428 µM (active) with KM12; 0.0612 µM (active) in the assay on UACC-257. In addition, the GI50 in the assay on CCRF-CEM was 0.0269 µM (active); with OVCAR-8 it was < 0.0146 µM (active); in the assay on SNB-75 it was < 0.01 µM (active); with SNB-19, 0.0163 µM (active); in the assay with HOP-92 it was < 0.0246 µM (active); in the assay with A549, 0.0251 µM (active). For the same compound, the GI50 is 0.0745 µM (active) with OVCAR-5; 0.0191 µM (active) with SF-539; < 0.0173 µM (active) in the assay on 786-0; 0.0365 µM (active) in the assay with SR; 0.0914 µM (active) with BT-549; 0.0444 µM (active) in the assay on ACHN. Moreover, the GI50 in the assay on HCC 2998 was 0.0533 µM (active).
For `OCc1ccc2c(c1)CC1(Cc3ccccc3C1)C2`, the GI50 with HL-60 was 10.7 µM (inactive); with RXF 393, 15.7 µM (inactive); in the assay with SK-MEL-28 it was 19.3 µM (inactive); in the assay with KM12 it was 14.4 µM (inactive); with UACC-257, 15.1 µM (inactive); in the assay on CCRF-CEM it was 4.39 µM (inactive). Moreover, the GI50 was 21.2 µM (inactive) in the assay on OVCAR-8; 13.5 µM (inactive) with SNB-75; 17.1 µM (inactive) in the assay on HOP-92; 20.6 µM (inactive) with A549; 18.3 µM (inactive) in the assay on SF-539; 26.6 µM (inactive) with T47D. The GI50 was 15.1 µM (inactive) in the assay on 786-0; 22.3 µM (inactive) in the assay on SR; 3.77 µM (inactive) with BT-549; 21 µM (inactive) with ACHN; 27.7 µM (inactive) with HCC 2998.
`Cc1ccc2c(c1)C(=O)C1(Cc3ccccc3C1=O)C2` (stereo not drawn): the GI50 in the assay on HL-60 is > 100 µM (inactive); in the assay on RXF 393, 47 µM (inactive); in the assay on SK-MEL-28, > 100 µM (inactive); in the assay with MDA-MB-435, > 100 µM (inactive); in the assay with KM12, > 100 µM (inactive); in the assay with UACC-257, > 100 µM (inactive). Further, the GI50 with CCRF-CEM was > 100 µM (inactive); with OVCAR-8, > 100 µM (inactive); in the assay on SNB-75, 67.1 µM (inactive); in the assay with SNB-19 it was > 100 µM (inactive); in the assay with HOP-92 it was 30.1 µM (inactive); in the assay with A549 it was > 100 µM (inactive). Moreover, the GI50 with OVCAR-5, in the assay with SF-539, in the assay on T47D, in the assay with 786-0, in the assay with SR and in the assay with ACHN was > 100 µM (inactive) in each case. In the assay on HCC 2998, the GI50 was > 100 µM (inactive).
In the case of `COc1ccccc1CC(=O)C(O)(C(F)(F)F)C(F)(F)F`, the GI50 in the assay on HL-60, with RXF 393, in the assay on SK-MEL-28, with MDA-MB-435, in the assay with KM12 and in the assay with UACC-257 was > 100 µM (inactive) throughout. In addition, the GI50 in the assay on CCRF-CEM is > 100 µM (inactive); in the assay on OVCAR-8, > 100 µM (inactive); in the assay on SNB-75 it was 12.7 µM (inactive); in the assay on SNB-19 it was > 100 µM (inactive); in the assay on HOP-92, > 100 µM (inactive); in the assay with A549, > 100 µM (inactive). In addition, the GI50 in the assay with OVCAR-5, in the assay on SF-539, in the assay with T47D, with 786-0, with SR and in the assay on ACHN was > 100 µM (inactive) throughout. In addition, the GI50 with HCC 2998 is > 100 µM (inactive).
`CC(=O)ON(C(C)=O)c1ccc(-c2nc3ccccc3s2)cc1C`: the GI50 in the assay with SK-MEL-28 was 76.4 µM (inactive); with MDA-MB-435, 60.3 µM (inactive); in the assay on KM12 it was 47.4 µM (inactive); in the assay with UACC-257 it was 50 µM (inactive); with CCRF-CEM, 23.7 µM (inactive); in the assay with OVCAR-8, 52.1 µM (inactive). Also, the GI50 in the assay with SNB-75 is 74.1 µM (inactive); in the assay with SNB-19, 50.1 µM (inactive); in the assay with HOP-92, 43.6 µM (inactive); in the assay with A549 it was 28.7 µM (inactive); with OVCAR-5 it was 4.28 µM (inactive); in the assay on SF-539, 41 µM (inactive). For the same compound, the GI50 is 60 µM (inactive) with 786-0; 29.2 µM (inactive) with SR; 70.5 µM (inactive) in the assay with BT-549; 32.6 µM (inactive) in the assay on ACHN; 67.6 µM (inactive) in the assay with HCC 2998.
`CCCCCCCCCCCCCCCC(=O)ON1C(=S)NC(C)(c2ccccc2)C1=S` (stereo not drawn): the GI50 in the assay on HL-60 was 94.6 µM (inactive); with RXF 393, > 100 µM (inactive); with KM12, > 100 µM (inactive); in the assay on UACC-257, > 100 µM (inactive); in the assay on CCRF-CEM, 36.4 µM (inactive); with OVCAR-8, > 100 µM (inactive). The GI50 with SNB-75, in the assay on SNB-19, in the assay with HOP-92, in the assay with A549, in the assay with OVCAR-5 and with SF-539 was > 100 µM (inactive) in each case. Besides, the GI50 in the assay with T47D is > 100 µM (inactive); with 786-0, 60 µM (inactive); in the assay on BT-549, > 100 µM (inactive); in the assay on ACHN, > 100 µM (inactive); in the assay on HCC 2998, 38.5 µM (inactive).
Regarding `Cc1noc(C)c1/N=N/c1ccc2nonc2c1N`, the GI50 with HL-60, in the assay on RXF 393, in the assay with SK-MEL-28, with MDA-MB-435, in the assay with KM12 and with UACC-257 was > 100 µM (inactive) each time. Besides, the GI50 with CCRF-CEM is > 100 µM (inactive); in the assay on OVCAR-8, > 100 µM (inactive); in the assay with SNB-75, 15.1 µM (inactive); in the assay on SNB-19, 26.1 µM (inactive); with HOP-92, 87.7 µM (inactive); with A549, > 100 µM (inactive). The GI50 with OVCAR-5 is > 100 µM (inactive); with SF-539 it was 23.4 µM (inactive); with T47D, > 100 µM (inactive); in the assay on 786-0, 42.4 µM (inactive); with SR, > 100 µM (inactive); in the assay on ACHN, > 100 µM (inactive). The GI50 with HCC 2998 was > 100 µM (inactive).
Regarding `COc1cc2c(cc1OC)C(OC)N(C)c1c-2ccc2cc3c(cc12)OCO3` (stereo not drawn), the GI50 in the assay with HL-60 is 2.22 µM (inactive); with RXF 393, 1.91 µM (inactive); with SK-MEL-28, 4.28 µM (inactive); with MDA-MB-435 it was 69 µM (inactive); in the assay on KM12, 0.839 µM (active); in the assay with UACC-257, 12.1 µM (inactive). Besides, the GI50 is 0.653 µM (active) in the assay with CCRF-CEM; 1.72 µM (inactive) in the assay on OVCAR-8; 0.708 µM (active) in the assay with SNB-75; 0.665 µM (active) with SNB-19; 2.19 µM (inactive) in the assay on HOP-92; 0.201 µM (active) in the assay on A549. Moreover, the GI50 in the assay with OVCAR-5 is 1.42 µM (inactive); with SF-539, 1.75 µM (inactive); with 786-0, 1.86 µM (inactive); in the assay on SR it was 0.506 µM (active); in the assay on BT-549 it was 3.06 µM (inactive); in the assay on ACHN, 4.69 µM (inactive). For the same compound, the GI50 with HCC 2998 was 1.65 µM (inactive).
Turning to `CC12CC(=O)Nc3ccccc3N1C(c1ccccc1)=NO2` (stereo not drawn), the GI50 in the assay on HL-60, in the assay with RXF 393, with MDA-MB-435, in the assay with KM12, with UACC-257 and in the assay on CCRF-CEM was > 100 µM (inactive) throughout. Also, the GI50 with OVCAR-8, in the assay on SNB-75, in the assay with SNB-19, with HOP-92, in the assay with A549 and in the assay on OVCAR-5 was > 100 µM (inactive) throughout. The GI50 with SF-539, in the assay on 786-0, in the assay on SR, with BT-549, in the assay with ACHN and with HCC 2998 was > 100 µM (inactive) in each case.
On to `CC(C)(C)NC(NC(C)(C)C)=C(C(Cl)=C(Cl)Cl)[N+](=O)[O-]`, for which the GI50 is > 100 µM (inactive) in the assay on HL-60; > 100 µM (inactive) in the assay with RXF 393; > 100 µM (inactive) in the assay on SK-MEL-28; > 100 µM (inactive) in the assay on KM12; 67.6 µM (inactive) with UACC-257; > 100 µM (inactive) in the assay with CCRF-CEM. Besides, the GI50 in the assay with OVCAR-8 is > 100 µM (inactive); with SNB-75, > 100 µM (inactive); with SNB-19, 10.1 µM (inactive); with A549 it was > 100 µM (inactive); in the assay with OVCAR-5 it was > 100 µM (inactive); in the assay on SF-539, > 100 µM (inactive). In addition, the GI50 in the assay on T47D, with 786-0, in the assay on SR, in the assay on BT-549, with ACHN and in the assay with HCC 2998 was > 100 µM (inactive) throughout.
